Measurements from patent US20100022559A1, “BISOXIMES AS FUNGICIDES” (BAYER CROPSCIENCE AG, priority 2006, published 2010).

Assay: logP determination by HPLC on a reversed-phase column (C 18), EEC Directive 79/831 Annex V.A8
Format: physicochemical
Settings: for chromatographic logP: reversed-phase HPLC column (C 18), HCO2H, HPLC reversed-phase column (C 18), 43° C., read-out: logP (HCO2H)
Protocol: The stated logP values were determined in accordance with EEC Directive 79/831 Annex V.A8 by HPLC (high performance liquid chromatography) on a reversed-phase column (C 18). Temperature: 43° C.

[1] = [a] acidic range, pH 2.3, 0.1% aqueous phosphoric acid and acetonitrile
[2] = [b] LC-MS, acidic range, pH 2.7, 0.1% aqueous formic acid and acetonitrile

CCC(CON=C(C)c1ccc(C)c(C)n1)CON=C(C)c1ccc(C)c(C)n1 (centres unmarked) [Compound 678]
logP (method marked [b] in Table 1): 3.89^[b] | logP (method marked [c] in Table 1): 6.79^[c]

CCC(CON=C(C)c1cc(C)cc(C)n1)CON=C(C)c1cc(C)cc(C)n1 (centres unmarked) [Compound 679]
logP (method marked [b] in Table 1): 2.61^[b]

CC(=NOCC(CON=C(C)c1cccc(C)n1)C(C)C)c1cccc(C)n1 (centres unmarked) [Compound 680]
logP (method marked [b] in Table 1): 5.03^[b] | logP (method marked [c] in Table 1): 6.40^[c]

CC(=NOCC(CON=C(C)c1ccc(C)c(C)n1)C(C)C)c1ccc(C)c(C)n1 (centres unmarked) [Compound 681]
logP (method marked [b] in Table 1): 4.57^[b] | logP (method marked [c] in Table 1): 7.18^[c]

CC(=NOCC(CON=C(C)c1cc(C)cc(C)n1)C(C)C)c1cc(C)cc(C)n1 (centres unmarked) [Compound 682]
logP (method marked [b] in Table 1): 3.12^[b] | logP (method marked [c] in Table 1): 7.09^[c]

CCOc1cc(C)nc(C(C)=NOCC(C)CON=C(C)c2cc(OCC)cc(C)n2)c1 (centres unmarked) [Compound 683]
logP (method marked [a] in Table 1): 1.71^[a]

CC#Cc1cccc(C(C)=NOCC(C)CON=C(C)c2cccc(C#CC)n2)n1 (centres unmarked) [Compound 686]
logP (method marked [b] in Table 1): 5.65^[b]

CC(=NOCC(C)CON=C(C)c1cccc(C(=O)c2ccccc2)n1)c1cccc(C)n1 (centres unmarked) [Compound 690]
logP (method marked [b] in Table 1): 5.75^[b]

CC(=NOCC1(CON=C(C)c2ccc(C)c(C)n2)CC1)c1cc(C)cc(C)n1 [Compound 695]
logP (method marked [b] in Table 1): 2.61^[b] | logP (method marked [c] in Table 1): 6.02^[c]

CC(=NOCC(C)(C)CON=C(C)c1ccc(C)c(C)n1)c1cc(C)cc(C)n1 [Compound 697]
logP (method marked [b] in Table 1): 3.15^[b] | logP (method marked [c] in Table 1): 6.70^[c]

CC(=NOCC(C)(C)CON=C(C)c1ccc(C)o1)c1ccc(C)o1 [Compound 698]
logP (method marked [b] in Table 1): 5.00^[b]

CC(=NOCCCON=C(C)c1ccc(C)c(C)n1)c1cccc(C)n1 [Compound 699]
logP (method marked [b] in Table 1): 2.53^[b] | logP (method marked [c] in Table 1): 5.33^[c]

CC(=NOCC#CCON=C(C)c1cccc(C)n1)c1cccc(C)n1 [Compound 706]
logP (method marked [b] in Table 1): 3.12^[b]

CC(=NOCc1ccccc1CON=C(C)c1ccccn1)c1ccccn1 [Compound 725]
logP (method marked [b] in Table 1): 3.76^[b]

CC(=NOCc1cccc(CON=C(C)c2cccc(C)n2)n1)c1cccc(C)n1 [Compound 740]
logP (method marked [b] in Table 1): 2.49^[b] | logP (method marked [c] in Table 1): 4.33^[c]

Cc1cc(C)nc(C(N)=NOC/C=C/CON=C(N)c2nc(C)cc(C)n2)n1 [Compound 772]
logP (value marked [b]): 1.62^[b]

CC(=NOC/C=C/CON=C(C)c1cccc(C)n1)c1cccc(C)n1 [Compound 777]
logP (value marked [b]): 2.89^[b]

CC[Si](CC)(CON=C(C)c1cccc(C)n1)CON=C(C)c1cccc(C)n1 [Compound 782]
logP (value marked [a]): 6.65^[a] | logP (value marked [b]): 6.65^[b] | logP (value marked [c]): 7.01^[c]

CC(=NOCC(C)CON=C(C)c1cccc(N2CCCC2)n1)c1cccc(N2CCCC2)n1 (centres unmarked) [Compound 783]
logP (value marked [a]): 2.51^[a]

C=C(CON=C(C#N)c1cccc(C)n1)CON=C(C#N)c1cccc(C)n1 [Compound 784]
logP (value marked [a]): 3.84^[a]

CC[Si](C)(CON=C(C)c1cccc(C)n1)CON=C(C)c1cccc(C)n1 [Compound 785]
logP (value marked [a]): 5.98^[a] | logP (value marked [b]): 5.98^[b] | logP (value marked [c]): 6.52^[c]

CC(=NOCC1(CON=C(C)c2ccc(C)c(C)n2)CC1)c1cccc(C)n1 [Compound 786]
logP (value marked [a]): 3.99^[a] | logP (value marked [b]): 3.99^[b] | logP (value marked [c]): 5.70^[c]

CC[Si](CC)(CON=C(C)c1cc(C)cc(C)n1)CON=C(C)c1cc(C)cc(C)n1 [Compound 787]
logP (value marked [a]): 5.05^[a] | logP (value marked [b]): 5.05^[b] | logP (value marked [c]): 7.36^[c]

CCC(C)(CON=C(C)c1cccc(C)n1)CON=C(C)c1cccc(C)n1 (centres unmarked) [Compound 788]
logP (value marked [b]): 5.73^[b] | logP (value marked [c]): 6.47^[c]

CC(=NOCC(C)CON=C(C)c1cccc(NCC2CC2)n1)c1cccc(NCC2CC2)n1 (centres unmarked) [Compound 791]
logP (value marked [a]): 1.95^[a]

CCC(C)(CON=C(C)c1ccc(C)c(C)n1)CON=C(C)c1ccc(C)c(C)n1 (centres unmarked) [Compound 793]
logP (value marked [b]): 5.39^[b] | logP (value marked [c]): 7.27^[c]

CCC(C)(CON=C(C)c1cc(C)cc(C)n1)CON=C(C)c1cc(C)cc(C)n1 (centres unmarked) [Compound 794]
logP (value marked [b]): 3.91^[b] | logP (value marked [c]): 7.18^[c]

CC(=NOCC(C)(C)CON=C(C)c1cccc(Cc2ccccc2)n1)c1cccc(Cc2ccccc2)n1 [Compound 798]
logP (value marked [a]): 7.36^[b][a] | logP (value marked [b]): 7.36^[b]

CC(=NOCC(C)(C)CON=C(C)c1ccc(C)c(C)n1)c1cccc(C)n1 [Compound 799]
logP (value marked [a]): 4.96^[a] | logP (value marked [b]): 4.96^[b] | logP (value marked [c]): 6.34^[c]

CC(=NOCC(C)CON=C(C)c1cccc(C#N)n1)c1cccc(C#N)n1 (centres unmarked) [Compound 800]
logP (value marked [a]): 4.78^[a]

COc1cc(C)nc(C(C)=NOCC(C)CON=C(C)c2cc(OC)cc(C)n2)c1 (centres unmarked) [Compound 806]
logP (value marked [a]): 1.31^[a] | logP (value marked [c]): 5.25^[c]

C=C(CON=C(C)c1cccc(C)n1)CON=C(Cl)c1ccc(C)c(C)n1 [Compound 807]
logP (value marked [a]): 3.8^[a]

CCC(CC)(CON=C(C)c1cccc(C)n1)CON=C(C)c1cccc(C)n1 [Compound 809]
logP (value marked [b]): 6.68^[b] | logP (value marked [c]): 6.97^[c]

CCC(CC)(CON=C(C)c1ccc(C)c(C)n1)CON=C(C)c1ccc(C)c(C)n1 [Compound 810]
logP (value marked [b]): 6.50^[b] | logP (value marked [c]): 7.36^[c]

CCC(CC)(CON=C(C)c1cc(C)cc(C)n1)CON=C(C)c1cc(C)cc(C)n1 [Compound 811]
logP (value marked [b]): 4.79^[b] | logP (value marked [c]): 7.36^[c]

COc1cc(C)nc(C(C)=NOCC2(CON=C(C)c3cc(OC)cc(C)n3)CC2)c1 [Compound 816]
logP (value marked [a]): 1.34^[a] | logP (value marked [c]): 4.94^[c]

CC(=NOCC(C)(C)CON=C(C)c1cc(C2CC2)cc(C)n1)c1cc(C2CC2)cc(C)n1 [Compound 817]
logP (value marked [a]): 3.27^[a] | logP (value marked [c]): 7.14^[c]

CC(=NOCC(C)(C)CON=C(C)c1cc(C2CC2)cc(C)n1)c1cccc(C)n1 [Compound 818]
logP (value marked [a]): 3.80^[a] | logP (value marked [c]): 6.57^[c]

CCSC(=NOCC(C)CON=C(SCC)c1cccc(C)n1)c1cccc(C)n1 (centres unmarked) [Compound 820]
logP (value marked [a]): 4.35^[a]

C=C(CON=C(C)c1cccc(C)n1)CON=C(C#N)c1ccc(C)c(C)n1 [Compound 821]
logP (value marked [a]): 3.74^[a]

CC(=NOCC1CCCCC1ON=C(C)c1cccc(C)n1)c1cccc(C)n1 (centres unmarked) [Compound 823]
logP (value marked [a]): 5.9^[a]

Cc1cccc(C(Cl)=NOCC(C)CON=C(Cl)c2cccc(C)n2)n1 (centres unmarked) [Compound 824]
logP (value marked [a]): 4.58^[a]

COc1ccc(C(C)=NOCC(C)CON=C(C)c2ccc(OC)c(C)n2)nc1C (centres unmarked) [Compound 825]
logP (value marked [b]): 5.21^[b] | logP (value marked [c]): 5.58^[c]

CC(=NOCC(C)CON=C(C)c1cccc([Si](C)(C)C)n1)c1ccccn1 (centres unmarked) [Compound 826]
logP (value marked [b]): 6.72^[b] | logP (value marked [c]): 7.29^[c]

CC(=NOC[Si](C)(CON=C(C)c1cccc(C)n1)C(C)C)c1cccc(C)n1 [Compound 834]
logP (value marked [a]): 6.72^[a] | logP (value marked [b]): 6.72^[b] | logP (value marked [c]): 7.35^[c]

COC(=NOCC(C)CON=C(OC)c1cccc(C)n1)c1cccc(C)n1 (centres unmarked) [Compound 835]
logP (value marked [a]): 1.95^[a]

CC(=NOC[Si](C)(CON=C(C)c1cc(C)cc(C)n1)C(C)C)c1cc(C)cc(C)n1 [Compound 836]
logP (value marked [a]): 5.04^[a] | logP (value marked [b]): 5.04^[b] | logP (value marked [c]): 7.36^[c]

CC(=NOC[Si](C)(CON=C(C)c1ccc(C)c(C)n1)C(C)C)c1ccc(C)c(C)n1 [Compound 837]
logP (value marked [a]): 6.76^[a] | logP (value marked [b]): 6.76^[b] | logP (value marked [c]): 7.36^[c]

Cc1cc(C)nc(C(C#N)=NOCC(C)CON=C(C#N)c2cc(C)cc(C)n2)c1 (centres unmarked) [Compound 838]
logP (value marked [a]): 4.84^[a]

COc1cc(C)nc(C(C)=NOCC(C)(C)CON=C(C)c2cc(OC)cc(C)n2)c1 [Compound 840]
logP (value marked [a]): 1.5^[a] | logP (value marked [c]): 5.79^[c]

CCOc1cc(C)nc(C(C)=NOCC(C)(C)CON=C(C)c2cc(OCC)cc(C)n2)c1 [Compound 841]
logP (value marked [a]): 2.00^[a] | logP (value marked [c]): 6.90^[c]

C=C(CON=C(OCC)c1cccc(C)n1)CON=C(OCC)c1ccc(C)c(C)n1 [Compound 843]
logP (value marked [a]): 2.25^[a]

CC(=NOCC(C)CON=C(C)c1cc(N2CCCC2)cc(C)n1)c1cc(N2CCCC2)cc(C)n1 (centres unmarked) [Compound 847]
logP (value marked [a]): 1.40^[a] | logP (value marked [c]): 5.93^[c]

CC(=NOCC1(CON=C(C)c2cccc(C3CC3)n2)CC1)c1cccc(C2CC2)n1 [Compound 848]
logP (value marked [a]): 7.36^[a]

C#CCOc1ccc(C(C)=NOCC(C)CON=C(C)c2ccc(OCC#C)c(C)n2)nc1C (centres unmarked) [Compound 867]
logP (value marked [b]): 5.33^[b] | logP (value marked [c]): 5.44^[c]

CC(=NOC[Si](C)(C)CON=C(C)c1ccc(C)c(C)n1)c1ccc(C)c(C)n1 [Compound 870]
logP (value marked [c]): 7.05^[c]

COCc1cc(C)nc(C(C)=NOCC(C)CON=C(C)c2cc(COC)cc(C)n2)c1 (centres unmarked) [Compound 871]
logP (value marked [b]): 4.06^[b] | logP (value marked [c]): 5.57^[c]

CC(CON1C(=O)c2ccccc2C1=O)CON1C(=O)c2ccccc2C1=O [IX-1, 2,2′-[(2-methylpropane-1,3-diyl)bis(oxy)]bis(1H-isoindole-1,3(2H)-dione)]
chromatographic logP: 2.87

C/C(=N\OCC(C)(C)CCl)c1cccc(C)n1 [VI-1, (1E)-1-(6-methylpyridin-2-yl)ethanone O-(3-chloro-2,2-dimethylpropyl)oxime]
chromatographic logP: 3.76

Cc1cccc(C(=NOCCCON)C(C)C)n1 [XII-1]
logP [1]: 1.12^[a]

Cc1cccc(C(=NOCCCON)C(C)C)n1 [XII-2]
logP [1]: 1.05^[a]

C/C(=N\OCC(C)(C)CON)c1cccc(C)n1 [XII-4]
logP [2]: 1.11^[b]

C/C(=N\OCC(C)(C)CON)c1ccc(C)c(C)n1 [XII-6]
logP [1]: 0.98^[a] | logP [2]: 0.98^[b] | logP ([c] LC-MS, neutral range, pH 7.8, 0.001 molar aqueous ammonium bicarbonate solution and acetonitrile): 2.94^[c]
